“Also recorded” adds a separate entry of the source.
What was measured:
[1] = test system: C57BL/6J mice; test: Operant ethanol-reinforced lever pressing (CONC FR1 FR1, 16-h sessions) after systemic administration; type: in vivo, mouse; settings: for alcohol-seeking behavior (lever presses for alcohol) during the peak period: 4th-5th hour of access, vs saline
From the text: Another animal model suitable for testing the effectiveness of the NPY antagonist uses alcohol-reinforced lever pressing behavior as described in Olive et al. Eur. J. Neurosci. 2000 Vol 12, 4131-4140. This model is particularly useful for identifying NPY antagonists that prevent or delay alcohol seeking behavior or prevent or reduce the occurence of relapse drinking in recovering alcoholics.
Male C57BL/6J mice (N=8) were housed in standard Plexiglas cages (n=4/cage) with food (Harlan, Indianapolis, Ind.) and water always available. Mice were 20 weeks of age (body weight, 28-35 g) and drug naïve at the start of all testing. During operant self-administration training, food pellets (15 g per overnight session) were placed into the operant chambers and water was available under a fixed ratio-1 (FR-1) schedule of reinforcement.
Test sessions were conducted in 8 Plexiglas operant chambers (Med Associates, Lafayette, Ind.) measuring 15.9×14×12.7 cm with stainless steel grid floors. Each chamber was housed in a sound-attenuating cubicle equipped with a house fan that provided ventilation and helped mask external noise. The left and right wall of each operant chamber was equipped with one ultra-sensitive stainless steel response lever and a liquid delivery system. Liquid solutions (ethanol or water) were maintained in 60 ml syringes mounted on a programmable pump (PH-100, Med Associates), which delivered 0.01 ml per activation into a stainless steel cup located to the left of the associated response lever. Each chamber also contained a house light (illuminated between 16:00-18:00 hr and 06:00-08:00 hr), as well as a stimulus light located above each lever (activated each time the lever was pressed). The chambers were interfaced (Med Associates) to an IBM-compatible PC, which was programmed to record all lever presses and liquid deliveries.
Mice were trained to lever press using reinforcement (10% sucrose w/v) of successive approximations. After initial behavioral shaping sessions, mice were run during 16 hr overnight (16:00-08:00 hrs) training sessions. During these training sessions, both response levers were active on a concurrent fixed ratio one (CONC FR1 FR1) schedule with 10% sucrose vs. water presented as the reinforcer. The position of each solution (left or right) was fixed for each animal but counterbalanced between animals to control for side preference. After 4 days, mice were trained to orally self-administer ethanol (10% v/v) vs. water using a sucrose substitution procedure, which we have adapted for use in the mouse (Olive et al., 2000 Eur. J. Neurosci. 12:4131-4140). Briefly, ethanol (2, 4, 8, or 10% v/v) was incrementally added to the sucrose (10% w/v) solution with 4 days at each increasing concentration. Then, sucrose (10, 5, 2% w/v) was incrementally faded out of the ethanol containing solution with 4 days at each decreasing concentration. After sucrose substitution training, all mice reliably responded on the CONC FR1 FR1 schedule of reinforcement with ethanol (10% v/v) vs. water presented as the reinforcers.

[2] = test system: Long-Evans rats; test: Ethanol (10% v/v) vs. water self-administration after infusion in the PVN, sucrose-faded rats with long-term ethanol history; type: in vivo, rat
From the text: The effectiveness of known NPY receptor antagonists and NPY Y1-selective or Y5selective receptor antagonists in reducing craving for alcohol and reducing self-administration of alcohol can be tested in experimental animal models. Briefly, Long-Evans rats are conditioned to the laboratory environment and trained to self-administer concurrent ethanol (10% v/v) vs. water using a sucrose-fading procedure (H. H. Samson, Alcohol Clin. Exp. Res., 1986, 10:436442) as described by Hodge et al. (Alcohol, 1993, 10:191-196). Stereotaxic surgery is performed to implant injector guide cannulae aimed at the PVN. Microinjections of test compounds are given, with and without concomitant injection of NPY, into the PVN of the conditioned rats, which are then immediately given the opportunity to self-administer either water or ethanol (10% v/v). The volume of ethanol and water consumed are measured. Ethanol intake is converted from milliliters consumed to gram/kilogram body weight. Relative ethanol intake (preference) is calculated as […] of ethanol consumed divided by total fluid intake (ethanol+water […]). Drug dose effects are analyzed by one-way repeated measures analysis of variance (ANOVA). Post-hoc comparisons between drug doses and vehicle control are conducted using a paired t-test or Dunnett's t-test where appropriate (SigmaStat, Jandel, San Rafael, Calif.).
Animals. Thirty-six male Long-Evans rats (Harlan, Indianapolis, Ind.) were housed individually in Plexiglas cages. Access to water was restricted during the first day of behavioral training, but was continuously available for the remainder of the experiment. Food was always available in the home cage. In experimental chambers, ethanol (10% v/v) and water were available concurrently during daily (M-F) sessions. The animal colony room was maintained on a 12L:12D cycle with the lights on at 06:30. Experimental sessions were run during the light portion of the cycle. All experimental procedures were conducted under institutional and NIH guidelines.
Apparatus. Experimental sessions were conducted in Plexiglas chambers (27×37×21 cm) located in sound-attenuating cubicles (MED Associates, model ENV 016M, Lafayette, Ind.). Chambers were equipped with exhaust fans that masked external noise. The right wall of each chamber contained two 50-ml drinking bottles. Drug solutions were administered bilaterally through stainless steel injectors (Plastics One, Roanoke, Va.), which were connected via plastic tubing to two 1.0 μl syringes (Hamilton, Reno, Nev.). Syringes were mounted on a micro-infusion pump (Harvard Apparatus, Model 22, Natick, Mass.) set to deliver 0.5 μl/min/syringes.
Self-administration procedures. After 2 weeks of adaptation to laboratory housing conditions, fluid access was restricted to 1-h per day (for 2 days only) and two groups of rats (n=12 per group) were trained to drink from the bottles in the experimental chambers by overnight access to sucrose (10% w/v) vs. water during one overnight session. Daily 1 hour sessions were then conducted with sucrose (10% w/v) vs. water available concurrently. The location (i.e., left or right side of the chamber) of the sucrose and water solutions was alternated daily. When sucrose and water intake patterns stabilized, the rats were trained to self-administer concurrent ethanol (10% v/v) vs. water using a sucrose-fading procedure (H. H. Samson, Alcohol Clin. Exp. Res., 1986, 10:436-442) as previously described (e.g., Hodge et al., 1993). Briefly, ethanol was gradually added to the sucrose solution and then sucrose was faded out of the solution until rats were self-administering 10% ethanol vs. water. During the 2-month sucrose-fading procedure, the location of the ethanol/sucrose solution and water were alternated daily.

[3] = test system: Long-Evans rats; test: Ethanol vs. water intake after NPY infusion in the PVN, control rats with no long-term history of ethanol self-administration; type: in vivo, rat; settings: for ETOH Intake / ETOH Preference (%) / water intake: mean±SEM
From the text: Since NPY has potent effects on consummatory behavior, it is possible that NPY infusions in the PVN could alter ethanol intake via mechanisms that are unrelated to experience with the pharmacological effects of ethanol. […] Experimentally naive rats were allowed one week to adapt to the laboratory. They were then implanted with bilateral guide cannulae aimed at the PVN. Experimental sessions began one week after surgery to allow for recovery. During daily 60-min sessions, rats were placed in the self-administration chambers with concurrent ethanol (10% v/v) vs. water available. Baseline levels of ethanol and water intake were measured for one week. Microinjection procedures were then conducted.
(§1) Microinjection procedure. When ethanol and water intake stabilized again, microinjections were conducted once per week. Unanesthetized rats were placed in plastic containers (15×30×15 cm deep) to reduce movement. Obturators were removed and sterile 33-gauge injectors were inserted bilaterally to a depth 1 mm beyond the end of the guide cannulae. Drug solutions were infused bilaterally in distilled water vehicle in a total volume of 1 μl (0.5 μl/side) over a 1-min period. The injectors were left in place for an additional 30-sec period to allow drug diffusion. Precise flow of the solutions was verified before and after each injection to ensure compound delivery. Self-administration sessions began immediately after microinjections. Sterile obturators were reinserted at the end of the behavioral sessions. When co-administered, D-NPY or BIBP 3226 was infused 15-min prior to NPY. Vehicle injections were also performed to control for local pressure or osmotic changes caused by infusions. During one month prior to drug testing, the animals were handled and placed in the plastic tubs to minimize the effects of procedural changes on subsequent drug effects. The data from these sessions were not used in the analysis. After completion of the microinjection protocol, the rats were sacrificed and their brains were removed for histological verification of injection sites.
Data analysis and statistics. Volume of ethanol and water consumed was measured to the nearest 0.5 milliliter at the end of each 1-h session. Ethanol intake was converted from mls consumed to g/kg body weight. Relative ethanol intake (preference) was calculated as mls of ethanol consumed divided by total fluid intake (ethanol+water mils). Drug dose effects were analyzed by one-way repeated measures analysis of variance (ANOVA). Post-hoc comparisons between drug doses and vehicle control were conducted using paired t-test or Dunnett's t-test where appropriate (SigmaStat, Jandel, San Rafael, Calif.).
Data values are presented as mean±SEM.

[4] = test system: Long-Evans rats; test: Body weight, food intake and water intake in the home cage 24 hours after PVN infusion; type: in vivo, rat
Protocol: FIG. 2 depicts the effects of NPY or NPY+D-NPY infused in the PVN on (A) body weight, (B) food intake, and (C) water intake measured in the home cage 24 hours after infusion. Drug doses were administered in random order. Data are plotted as Mean±SEM of 11 rats.
as §1

[5] = any dose of NPY tested, rats without long-term ethanol history
[6] = NPY in the PVN, 24 hours after infusion, ethanol-experienced rats
[7] = NPY, sucrose-inexperienced animals
[8] = D-NPY co-administered with NPY (10 fmol) in the PVN

With `CC1(C)CC(=O)C(C2C3=C(CC(C)(C)CC3=O)Oc3ccccc32)C(=O)C1` (centres unmarked) [L 152,804, 2-(3,3-dimethyl-1-oxo-4H-1H-xanthen-9-yl)-5,5-dimethylcyclohexane-1,3-dione] the “self-administration during the 13th hour of access” value ([1]; 60 mg/kg) was “compensatory increase in self-administration”, the “alcohol-seeking behavior (lever presses for alcohol) during the peak period” value ([1]; 60 mg/kg) was “significantly decreased alcohol-seeking behavior” and the “alcohol-seeking behavior (lever presses for alcohol) during the peak period” value ([1]; 60 mg/kg, listed as LI 52,804) was “blocked this peak in alcohol-seeking behavior”. The “latency to the first response (delay to first alcohol lever press)” value ([1]; dose-dependent, vs no injection and saline controls) was “significantly increased the latency to the first response; also recorded: dose dependently delayed the onset of responding”, the “response latency, statistical significance” value ([1]; highest dose) was “did not achieve significance” and the “water intake during 16-h sessions” value ([1]; systemic, 10, 30 and 60 mg/kg) was “no effect on water intake”. The ethanol self-administration ([1]; the two low doses (10, 30 mg/kg)) was “did not significantly alter ethanol self-administration”.
With Neuropeptide Y [NPY] the ethanol intake ([2]; NPY (10 fmol) in the PVN, BIBP 3226 group of 9 rats) was “significantly increased ethanol intake above control values”, the “water intake during experimental sessions” value ([2]; NPY infused in the PVN) was “decreased water intake in a dose-dependent manner; also recorded: significantly decreased water intake” and the ethanol intake ([2]; NPY infused in the PVN, all doses, 1-hour session, vs vehicle control) was “increases alcohol self-administration; also recorded: significantly increased ethanol intake”. For the same compound, the ethanol preference ([2]; NPY infused in the PVN, dose-dependent, 1-hour session) was “significantly increased ethanol preference”, the “ethanol as share of fluid consumption during daily sessions” value ([2]; two highest doses of NPY in the PVN) was “greater than 90%” and the “ETOH Intake” value ([3]; NPY 10.0 fmol in the PVN) was 0.0330 ± 0.024 g/kg/h. For the same compound, the “ETOH Preference (%)” value ([3]; NPY 10.0 fmol in the PVN) was 20.0 ± 13.333%, the “water intake” value ([3]; NPY 10.0 fmol in the PVN) was 0 ± 0 mL/h and the “ETOH Intake” value ([3]; NPY 100.0 fmol in the PVN) was 0.0550 ± 0.03 g/kg/h. For the same compound, the “ETOH Preference (%)” value ([3]; NPY 100.0 fmol in the PVN) was 30 ± 15.275%, the “water intake” value ([3]; NPY 100.0 fmol in the PVN) was 0.3 ± 0.133 mL/h and the “change in ethanol intake” value [3, 5] was “no dose of NPY tested produced a change; also recorded: no effect on ethanol intake”. For the same compound, the “change in ethanol preference” value [3, 5] was “no dose of NPY tested produced a change”, the “change in water intake” value [3, 5] was “no dose of NPY tested produced a change” and the “body weight in the home cage” value [4, 6] was “no effect”. For the same compound, the “food consumption in the home cage” value [4, 6] was “no effect”, the “water intake in the home cage” value ([4]; NPY in the PVN, 24 hours after infusion, ethanol-experienced rats, p<0.05) was “reduced water intake in the home cage; also recorded: small but significant reductions” and the “body weight in the home cage” value [4, 7] was “no effect”. The “food intake in the home cage” value [4, 7] was “no effect” and the “water intake in the home cage” value [4, 7] was “no effect”.
With “[D-Tyr^27,36,D-Thr^32] Neuropeptide Y (27-36) [D-NPY]” the ethanol intake ([2]; D-NPY alone infused in the PVN) was “partial, but significant, decrease in ethanol intake”, the “NPY-induced decrease in water intake during sessions” value [2, 8] was “completely blocked the effects of NPY on ethanol and water intake; also recorded: significantly reversed NPY-induced decreases in water intake” and the “NPY-induced increase in ethanol intake” value [2, 8] was “completely blocked the effects of NPY on ethanol and water intake”. The “NPY-induced increase in ethanol preference” value ([2]; D-NPY co-administered with NPY (10 fmol) in the PVN, P<0.09) was “did not significantly alter” and the “body weight in the home cage” value ([4]; D-NPY alone or in combination with NPY in the PVN) was “produced no effect on body weight”.
